# Assay results from the supplement of paper PMC7600603.
# Legend:
# DLD1 NRF2-WT [1] = experiment: drug sensitivity score (DSS) viability (DSS score); higher = more sensitive; extreme values may be limits of the assay; conditions: 72 h; CellTiter-Glo viability
# Outline: (§1)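 DLD1 colorectal cancer cells, an isogenic pair either NRF2 wild-type or carrying a CRISPR gain-of-function, were cultured in DMEM with 10% FBS and treated in 384-well plates with library compounds at 5 concentrations across a 10,000-fold range. CellTiter-Glo viability was read on a Pherastar FS reader after 72 h and normalised to vehicle wells and 100-μM positive-control wells. Four-parameter logistic dose-response fits were applied. EC50 and drug sensitivity score, a normalised area under the curve, were taken from these fits.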
# DLD1 NRF2-GOF [2] = experiment: as above; conditions: 72 h; CellTiter-Glo viability
# Outline: as §1
# DLD1 NRF2-WT [3] = experiment: drug sensitivity score (DSS) cytotoxicity (DSS score); higher = more toxic; extreme values may be limits of the assay; conditions: 72 h; CellTox Green cytotoxicity
# Outline: (§2)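 TC50 and drug sensitivity score, a normalised area under the curve, were derived by logistic dose-response fits of cytotoxicity. The cells were an isogenic DLD1 colorectal cancer pair, NRF2 wild-type or CRISPR-edited, kept in DMEM with 10% FBS. Compounds were tested in 384-well plates at 5 concentrations across a 10,000-fold range for 72 h. Readings with CellTox Green on a Pherastar FS reader were normalised to vehicle wells and 100-μM positive-control wells.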
# DLD1 NRF2-GOF [4] = experiment: as above; conditions: 72 h; CellTox Green cytotoxicity
# Outline: as §2
# DLD1 NRF2-WT [5] = experiment: TC50 cytotoxicity; higher = less toxic; conditions: 72 h; CellTox Green cytotoxicity
# Outline: as §2
# DLD1 NRF2-GOF [6] = experiment: TC50 cytotoxicity; higher = less toxic; conditions: 72 h; CellTox Green cytotoxicity
# Outline: as §2
# DLD1 NRF2-WT [7] = conditions: 72 h; CellTiter-Glo viability
# Outline: as §1
SMILES,drug sensitivity score (DLD1 NRF2-WT [1]),drug sensitivity score (DLD1 NRF2-GOF [2]),drug sensitivity score (DLD1 NRF2-WT [3]),drug sensitivity score (DLD1 NRF2-GOF [4]),TC50 cytotoxicity (DLD1 NRF2-WT [5]) [µM],TC50 cytotoxicity (DLD1 NRF2-GOF [6]) [µM],EC50 viability (DLD1 NRF2-WT [7]) [µM]
CCc1c(C(=O)C(N)=O)c2c(OCC(=O)O)cccc2n1Cc1ccccc1 [Varespladib],3.9,0.8,0,0,> 10,> 10,1.22
C[C@]12C=CC(=O)C=C1CC[C@@H]1[C@@H]2[C@@H](O)C[C@@]2(C)[C@H]1CC[C@]2(O)C(=O)CO [Prednisolone],,1,0,0,> 10,> 10,
CC[C@H](C)C(=O)O[C@H]1C[C@@H](C)C=C2C=C[C@H](C)[C@H](CC[C@@H]3C[C@@H](O)CC(=O)O3)[C@H]21 [Lovastatin],0,5.2,0,0,> 10,> 10,> 10
O=C1Cc2cc(C(=O)NC3C[C@H]4CC[C@@H](C3)N4S(=O)(=O)CC3CCN(CCCC(F)(F)F)CC3)c(Cl)cc2N1 (some centres not stated),0,4.1,0,0,> 10,> 10,> 10
CO[C@H]1C[C@@H]2CC[C@@H](C)[C@@](O)(O2)C(=O)C(=O)N2CCCC[C@H]2C(=O)O[C@H]([C@H](C)C[C@@H]2CC[C@@H](OCCO)[C@H](OC)C2)CC(=O)[C@H](C)/C=C(\C)[C@@H](O)[C@@H](OC)C(=O)[C@H](C)C[C@H](C)/C=C/C=C/C=C/1C [Everolimus],4.7,2.5,0,0,> 0.1,> 0.1,0.0117
Clc1ccccc1C(c1ccccc1)(c1ccccc1)n1cccn1 [TRAM-34],2.2,6.4,,,,,> 1
O=C(Nc1ccc2[nH]nc(-c3ccncc3)c2c1)[C@@H]1CCN(CC(=O)N2CCN(c3ccc(-c4ncccn4)cc3)CC2)C1,6.6,,0,0,> 10,> 10,0.688
C[C@@H](Nc1cc(F)cc(F)c1)c1cc(C(=O)N(C)C)cc2c(=O)cc(N3CCOCC3)oc12 [AZD-8186],3.6,5.2,0,0,> 1,> 1,0.0598
CNC(=O)c1ccccc1Sc1ccc2c(/C=C/c3ccccn3)n[nH]c2c1 [Axitinib],2.4,,0.3,0,> 10,> 10,3.39
CC1=NN(c2ccc(C(=O)O)cc2)C(=O)C1=Cc1ccc(-c2cc(C)c(C)cc2[N+](=O)[O-])o1 [C646],2.8,,0,0,> 25,> 25,5.03
CC1(C)CCC(c2ccc(Cl)cc2)=C(CN2CCN(c3ccc(C(=O)NS(=O)(=O)c4ccc(N[C@H](CCN5CCOCC5)CSc5ccccc5)c(S(=O)(=O)C(F)(F)F)c4)cc3)CC2)C1 [Navitoclax],2.1,,4,2.1,1.55,1.89,3.95
CC(C)NC[C@@H](C(=O)N1CCN(c2ncnc3c2[C@H](C)C[C@H]3O)CC1)c1ccc(Cl)cc1 [Ipatasertib],1.3,,0,0,> 10,> 10,> 10
COc1c(C)cnc(Cn2cnc3c(Cl)nc(N)nc32)c1C [BIIB021],20.6,,0,0,> 10,> 10,0.149
O=C(Nc1cccc(NC(=O)c2cccc(O)c2O)c1)c1cccc(O)c1O [MST-312],10.4,,0,0,> 10,> 10,0.238
Cc1nn(C)c(COc2ccc(N3CCN(S(=O)(=O)N(C)C)CC3)cc2)c1-c1cccc2c(CCCOc3cccc4ccccc34)c(C(=O)O)n(CCN3CCOCC3)c12,1.9,2.1,0,0,> 50,> 50,> 50
C[C@@H]1CN(CC(=O)Nc2ccc3c(c2)Cc2cccc(-c4cc(=O)cc(N5CCOCC5)o4)c2S3)C[C@H](C)O1,0,,0,0,> 25,> 25,> 25
CCC(C)n1ncn(-c2ccc(N3CCN(c4ccc(OCC5COC(Cn6cncn6)(c6ccc(Cl)cc6Cl)O5)cc4)CC3)cc2)c1=O (configuration not stated) [Itraconazole],0.4,,0,0,> 5,> 5,> 5
C=CC(=O)Nc1cccc(Oc2nc(Nc3ccc(N4CCN(C)CC4)cc3)nc3ccsc23)c1 [Olmutinib],2.6,2.8,0,0,> 1,> 1,
CO[C@H](C(=O)[C@@H](O)[C@@H](C)O)[C@@H]1Cc2cc3cc(O[C@H]4C[C@@H](O[C@H]5C[C@@H](O)[C@H](O)[C@@H](C)O5)[C@@H](O)[C@@H](C)O4)c(C)c(O)c3c(O)c2C(=O)[C@H]1O[C@H]1C[C@@H](O[C@H]2C[C@@H](O[C@H]3C[C@](C)(O)[C@H](O)[C@@H](C)O3)[C@H](O)[C@@H](C)O2)[C@H](O)[C@@H](C)O1 [Plicamycin],21.8,,1.7,0,> 10,> 10,0.119
CCCCCCCCCCCCCCCCOP(=O)([O-])OCC[N+](C)(C)C [Miltefosine],13.1,,11,9.7,7.4,10.4,7.67
O=C(Nc1cc(Oc2cc(F)c(NC(=O)C3(C(=O)Nc4ccc(F)cc4)CC3)cc2F)ccn1)C1CC1 [Altiratinib],5.1,,0.6,0.2,> 10,> 10,3.43
COc1cc(Nc2ncc(F)c(Nc3ccc4c(n3)NC(=O)C(C)(C)O4)n2)cc(OC)c1OC [Tamatinib],1,,0,0,> 10,> 10,> 10
COc1cc2/c(=N/c3ccc(Br)cc3F)nc[nH]c2cc1OCC1CCN(C)CC1 [Vandetanib],6.9,2.3,0,0,> 1,> 1,

SMILES,drug sensitivity score (DLD1 NRF2-WT [1]),drug sensitivity score (DLD1 NRF2-GOF [2]),drug sensitivity score (DLD1 NRF2-WT [3]),drug sensitivity score (DLD1 NRF2-GOF [4]),TC50 cytotoxicity (DLD1 NRF2-WT [5]) [µM],TC50 cytotoxicity (DLD1 NRF2-GOF [6]) [µM],EC50 viability (DLD1 NRF2-WT [7]) [µM]
CONC(=O)c1ccccc1Nc1cc(Nc2cc(C)nn2C(C)C)ncc1Cl,,1.6,0,0,> 1,> 1,
CC(=O)OC[C@H]1O[C@@H]([S-])[C@H](OC(C)=O)[C@@H](OC(C)=O)[C@@H]1OC(C)=O.CCP(CC)CC.[Au+] [Auranofin],5.5,,2.3,0,0.818,> 2.5,0.622
O=C(CCNC(=O)c1ccc(OC(F)(F)F)cc1)N[C@@H]1CCCc2ccccc21 [ML390],1.9,,0,0,> 50,> 50,> 50
CNC(=O)c1cc(COc2nnc(Nc3ccc(Cl)cc3)c3ccoc23)ccn1 [Telatinib],6.9,2.6,0,0,> 10,> 10,
CCS(=O)(=O)Nc1ccc(Oc2ccc(F)cc2F)c(-c2cn(C)c(=O)c3[nH]ccc23)c1 [Mivebresib],14.7,,0,0,> 10,> 10,0.102
CC[C@H](C)C(=O)O[C@H]1C[C@H](O)C=C2C=C[C@H](C)[C@H](CC[C@@H](O)C[C@@H](O)CC(=O)O)[C@H]21 [Pravastatin],0,,0,0,> 10,> 10,> 10
Cc1nc(C(=O)NCC(=O)O)c(O)c2ccc(Oc3ccccc3)cc12 [Roxadustat],2.5,,0,0,> 10,> 10,1.69
C[C@H]1C[C@@H]2[C@H]([C@@H](O)C[C@@]3(C)[C@H]2CC[C@]3(O)C(=O)CO)[C@@]2(C)C=CC(=O)C=C12 [Methylprednisolone],,2.9,0,0,> 10,> 10,
CC(C)C[C@H](NC(=O)[C@H](Cc1ccccc1)NC(=O)c1cnccn1)B(O)O [Bortezomib],27.1,,27.2,23.1,0.0057,0.0117,0.0058
Nc1cc(F)ccc1NC(=O)c1ccc(CNC(=O)/C=C/c2cccnc2)cc1 [Chidamide],0.6,,0,0,> 10,> 10,> 10
Cc1cccc(CC(=O)N2CCc3c2ccc(-c2cn(C)c4ncnc(N)c24)c3F)n1,2.5,,0,0,> 2.5,> 2.5,0.808
CC(=O)Nc1cccc(-n2c(=O)n(C3CC3)c(=O)c3c(Nc4ccc(I)cc4F)n(C)c(=O)c(C)c32)c1 [Trametinib],3.1,,0,0,> 0.25,> 0.25,0.037
C=CC(=O)N1CC/C(=C\c2ccc(F)c([N+](=O)[O-])c2)C(=O)/C(=C/c2ccc(F)c([N+](=O)[O-])c2)C1 [VLX1570],27.9,,21.9,2.7,0.0677,5.34,0.0504
COc1ccc(CCc2nc3cc(-c4c(C)noc4C)ccc3n2C[C@H](C)N2CCOCC2)cc1Cl [SGC-CBP30],2.2,,0.8,0.2,> 25,> 25,9.91
CC/C(=C(\c1ccccc1)c1ccc(OCCN(C)C)cc1)c1ccccc1 [Tamoxifen],2,,0,0,> 10,> 10,4.36
CNCc1ccc(-c2[nH]c3cc(F)cc4c3c2CCNC4=O)cc1 [Rucaparib],0.8,2.7,0,0,> 10,> 10,
CC(C)(C)c1cc(NC(=O)Nc2ccc(Oc3ccnc4[nH]c(=O)cnc34)cc2F)n(-c2ccccc2)n1,9.8,,1.1,0,> 25,> 25,3.11
OC[C@H]1O[C@@H](n2cnc3c2N=CNC[C@H]3O)C[C@@H]1O [Pentostatin],2.5,1.6,,,,,1.86
C[C@@H](Oc1cc(-n2cnc3ccc(CN4CCN(C)CC4)cc32)sc1C(N)=O)c1ccccc1C(F)(F)F,33.6,,2.4,8,> 10,> 10,0.0033
CCCCCCCCCCCCCCCCCCOP(=O)([O-])OC1CC[N+](C)(C)CC1 [Perifosine],0.3,,0.9,0.6,> 2.5,> 2.5,> 2.5
C[C@H]1C[C@@H](n2c(Nc3ccc(OC(F)(F)F)cc3)nc3cc(CCC(=O)O)ccc32)CC(C)(C)C1,0.3,,0,0,> 10,> 10,> 10
Cc1ccc(NC(=O)c2ccc(CN3CCN(C)CC3)cc2)cc1Nc1nccc(-c2cccnc2)n1 [Imatinib],1.2,,0,0,> 10,> 10,4.5
